Assay [1] has as its target hGYS1 enzyme (recombinant hGYS1/GN1 protein) (Homo sapiens (Human), UniProt P13807). The assay can be described thus: GYS1 coupled enzyme assay (PK/LDH). The settings on record: hGYS1/GN1 50 nM, UDP-Glucose 0.8 mM, G6P 1 mM; geometric mean of at least 2 runs. Format: biochemical.
Assay [2] concerns the target hGYS2 enzyme (recombinant hGYS2/GN1 protein) (Homo sapiens (Human), UniProt P54840). Briefly: GYS2 coupled enzyme assay (PK/LDH). The settings on record: geometric mean of at least 2 assay runs on separate days, read-out: Avg_IC50. Format: biochemical. Summed up:
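Read-out: NADH loss at 340 nm, read each minute for 10 min, slope normalized to controls, duplicate % inhibition fit to Hill (0–100). Enzyme: 200 nM hGYS2/GN1; substrate 2 mM UDP-glucose plus 0.2% glycogen and 2 mM G6P; pH 7.5 Tris, 2.5% DMSO.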

Assay [3] relates to hGYS1 enzyme / glycogen synthesis in HeLa cells. Briefly: GYS1 cell based assay (glycogen synthesis, Glucose-glo). The settings on record: Homo sapiens, HeLa, 24 h, 24 h incubation, 20 mM glucose, geometric mean of at least 2 runs. Details: species or system human. Summed up: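 HeLa cells starved 24 h in medium containing only 1× Glutamax were plated onto compound in medium with 20 mM glucose (1% DMSO final) for 24 h, 37 °C, 5% CO2. Acid lysates were Tris-quenched, glucoamylase-digested (pH 5.3, 1 h, 37 °C) and read by Glucose-glo luminescence. IC50 came from Hill fits, as geometric mean of ≥2 runs.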

pIC50: −log10 of the molar value.

Chain of hGYS2 enzyme (recombinant hGYS2/GN1 protein) (P54840 whole entry): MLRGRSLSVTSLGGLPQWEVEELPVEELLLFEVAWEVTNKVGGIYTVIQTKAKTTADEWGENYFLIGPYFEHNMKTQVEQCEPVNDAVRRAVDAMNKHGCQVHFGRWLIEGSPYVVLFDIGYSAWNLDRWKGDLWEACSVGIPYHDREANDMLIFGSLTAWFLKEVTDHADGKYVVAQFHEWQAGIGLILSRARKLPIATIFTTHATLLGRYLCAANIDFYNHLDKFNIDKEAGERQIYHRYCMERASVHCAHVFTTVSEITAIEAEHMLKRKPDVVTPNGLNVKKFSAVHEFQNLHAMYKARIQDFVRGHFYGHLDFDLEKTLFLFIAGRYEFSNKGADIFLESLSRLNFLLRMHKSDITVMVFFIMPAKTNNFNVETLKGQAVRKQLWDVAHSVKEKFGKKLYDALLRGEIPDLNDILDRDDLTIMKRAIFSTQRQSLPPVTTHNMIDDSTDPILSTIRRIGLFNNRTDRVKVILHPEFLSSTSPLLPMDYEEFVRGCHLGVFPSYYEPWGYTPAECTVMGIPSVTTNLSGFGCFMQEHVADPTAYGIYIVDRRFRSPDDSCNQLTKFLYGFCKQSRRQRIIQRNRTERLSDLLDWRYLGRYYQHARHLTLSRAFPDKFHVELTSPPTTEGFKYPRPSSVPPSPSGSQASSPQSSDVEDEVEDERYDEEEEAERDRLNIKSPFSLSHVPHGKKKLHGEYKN
Chain of hGYS2 enzyme (recombinant hGYS2/GN1 protein) (P46976 whole entry partner): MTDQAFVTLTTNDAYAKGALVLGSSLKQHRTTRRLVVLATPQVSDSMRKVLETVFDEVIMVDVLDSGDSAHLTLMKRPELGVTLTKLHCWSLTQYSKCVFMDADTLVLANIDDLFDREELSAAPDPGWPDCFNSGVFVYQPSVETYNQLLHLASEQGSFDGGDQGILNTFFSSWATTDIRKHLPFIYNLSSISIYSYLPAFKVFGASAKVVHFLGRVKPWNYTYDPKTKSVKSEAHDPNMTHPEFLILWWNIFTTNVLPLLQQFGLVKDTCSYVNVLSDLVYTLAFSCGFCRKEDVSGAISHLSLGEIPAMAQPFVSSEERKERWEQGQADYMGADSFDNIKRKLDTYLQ
Chain of hGYS1 enzyme (recombinant hGYS1/GN1 protein) (P13807 whole entry): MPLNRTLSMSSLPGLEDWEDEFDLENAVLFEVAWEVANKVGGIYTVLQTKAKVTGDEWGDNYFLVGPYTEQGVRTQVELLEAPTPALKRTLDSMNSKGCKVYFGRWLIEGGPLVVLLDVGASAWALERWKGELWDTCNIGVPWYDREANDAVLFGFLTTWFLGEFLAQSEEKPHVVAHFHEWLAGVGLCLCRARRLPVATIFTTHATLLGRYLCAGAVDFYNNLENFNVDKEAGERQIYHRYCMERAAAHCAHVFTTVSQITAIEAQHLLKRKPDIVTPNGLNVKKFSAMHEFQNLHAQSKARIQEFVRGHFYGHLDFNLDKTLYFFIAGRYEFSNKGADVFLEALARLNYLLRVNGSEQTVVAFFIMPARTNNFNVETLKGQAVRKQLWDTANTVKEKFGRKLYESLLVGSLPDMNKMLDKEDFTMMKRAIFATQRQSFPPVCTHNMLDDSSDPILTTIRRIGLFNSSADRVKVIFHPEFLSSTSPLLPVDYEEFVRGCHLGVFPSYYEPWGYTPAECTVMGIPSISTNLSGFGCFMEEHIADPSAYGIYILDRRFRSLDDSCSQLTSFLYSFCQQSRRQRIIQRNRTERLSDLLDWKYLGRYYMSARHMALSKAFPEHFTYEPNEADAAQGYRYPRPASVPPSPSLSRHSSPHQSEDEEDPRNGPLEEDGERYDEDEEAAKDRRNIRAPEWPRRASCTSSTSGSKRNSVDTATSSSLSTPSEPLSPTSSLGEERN
Chain of hGYS1 enzyme (recombinant hGYS1/GN1 protein) (P46976 whole entry partner): as the sequence (P46976 whole entry partner) above

For the molecule `O=C(N[C@@H](c1ccccc1)c1ccc(C2CC2)c(F)n1)[C@@H]1[C@H]2C[C@H]2CN1C(=O)Cc1cnn[nH]1` [Compound 320, (1S,2S,5R)-N-[(S)-(5-cyclopropyl-6-fluoropyridin-2-yl)(phenyl)methyl]-3-[2-(1H-1,2,3-triazol-5-yl)acetyl]-3-azabicyclo[3.1.0]hexane-2-carboxamide], the pIC50 was 6.71 in assay [1], < 4.00 in assay [2] and 5.80 in assay [3].
Regarding `C[C@H]1CC[C@@H](C(=O)N[C@@H](c2ccccc2)c2ccc(C3CC3)c(F)n2)N1C(=O)Cc1cnn[nH]1` [Compound 321, (2S,5S)-N-[(S)-(5-cyclopropyl-6-fluoropyridin-2-yl)(phenyl)methyl]-5-methyl-1-[2-(1H-1,2,3-triazol-5-yl)acetyl]pyrrolidine-2-carboxamide], the results for the pIC50 in assay [1], in assay [2] and in assay [3] were 6.91, < 4.00 and 5.91, respectively.
For `CC(C)c1ccc([C@@H](NC(=O)[C@@H]2C[C@@H](F)CN2C(=O)Cn2nncc2C(F)(F)F)c2ccccc2)cc1F` [Compound 322, (2S,4R)-4-fluoro-N—((S)-(3-fluoro-4-isopropylphenyl)(phenyl)methyl)-1-(2-(5-(trifluoromethyl)-1H-1,2,3-triazol-1-yl)acetyl)pyrrolidine-2-carboxamide], in that order: 7.89, < 4.00 and 6.54.
In the case of `CC(C)c1ccc([C@@H](NC(=O)[C@@H]2CC[C@H](C)N2C(=O)Cc2cnn[nH]2)c2ccccc2)cc1F` [Compound 323, (2S,5S)-N-[(S)-[3-fluoro-4-(propan-2-yl)phenyl](phenyl)methyl]-5-methyl-1-[2-(1H-1,2,3-triazol-5-yl)acetyl]pyrrolidine-2-carboxamide], the pIC50 in assay [1] was 7.13; in assay [2] it was < 4.00; in assay [3] it was 6.05.
Regarding `CC(C)c1ccc([C@@H](NC(=O)[C@@H]2C[C@@H](F)CN2C(=O)Cc2cnn[nH]2)c2ccccc2)cc1F` [Compound 326, (2S,4R)-4-fluoro-N-[(S)-[3-fluoro-4-(propan-2-yl)phenyl](phenyl)methyl]-1-[2-(1H-1,2,3-triazol-5-yl)acetyl]pyrrolidine-2-carboxamide], the pIC50 in assay [1] was 7.70; in assay [2], < 4.00; in assay [3] it was 6.47.
For `CC(C)c1ccc([C@@H](NC(=O)[C@@H]2C[C@@H](F)CN2C(=O)Cn2cnnn2)c2ccccc2)cc1F` [Compound 330, (2S,4R)-4-fluoro-N-[(S)-[3-fluoro-4-(propan-2-yl)phenyl](phenyl)methyl]-1-[2-(1H-1,2,3,4-tetrazol-1-yl)acetyl]pyrrolidine-2-carboxamide], in that order: 7.68, < 4.00 and 6.25.
For `Cc1nnc(CC(=O)N2C[C@H](F)C[C@H]2C(=O)N[C@@H](c2ccccc2)c2ccc(C(C)C)c(F)c2)o1` [Compound 332, (2S,4R)-4-fluoro-N-[(S)-[3-fluoro-4-(propan-2-yl)phenyl](phenyl)methyl]-1-[2-(5-methyl-1,3,4-oxadiazol-2-yl)acetyl]pyrrolidine-2-carboxamide], in that order: 7.60, < 4.00 and 6.57.
For the molecule `CC(C)c1ccc([C@@H](NC(=O)[C@@H]2C[C@@H](F)CN2C(=O)Cc2cnnn2C)c2ccccc2)cc1F` [Compound 335, (2S,4R)-4-fluoro-N-[(S)-[3-fluoro-4-(propan-2-yl)phenyl](phenyl)methyl]-1-[2-(1-methyl-1H-1,2,3-triazol-5-yl)acetyl]pyrrolidine-2-carboxamide], the pIC50 was 7.43 in assay [1], < 4.00 in assay [2] and 6.35 in assay [3].
As to `CC(C)c1ccc([C@@H](NC(=O)[C@@H]2C[C@@H](F)CN2C(=O)Cc2cn(C)nn2)c2ccccc2)cc1F` [Compound 336], the pIC50 was 7.82 in assay [1], < 4.00 in assay [2] and 6.55 in assay [3].
`CC(C)c1ccc([C@@H](NC(=O)[C@@H]2C[C@@H](F)CN2C(=O)Cc2ccno2)c2ccccc2)cc1F` [Compound 338, (2S,4R)-4-fluoro-N-[(S)-[3-fluoro-4-(propan-2-yl)phenyl](phenyl)methyl]-1-[2-(1,2-oxazol-5-yl)acetyl]pyrrolidine-2-carboxamide]: the results for the pIC50 in assay [1], in assay [2] and in assay [3] were 7.47, < 4.00 and 6.41, respectively.
For `CC(C)c1ccc([C@@H](NC(=O)[C@@H]2C[C@@H](F)CN2C(=O)CN2CC(=O)N(C)CC2=O)c2ccccc2)cc1F` [Compound 339, (2S,4R)-4-fluoro-N-[(S)-[3-fluoro-4-(propan-2-yl)phenyl](phenyl)methyl]-1-[2-(4-methyl-2,5-dioxopiperazin-1-yl)acetyl]pyrrolidine-2-carboxamide], in that order: 7.74, < 4.00 and 6.51.
Consider `CC(C)c1ccc([C@@H](NC(=O)[C@@H]2C[C@@H](F)[C@H](C)N2C(=O)Cc2cnn[nH]2)c2ccccc2)cc1F` [Compound 340, (2S,4R,5S)-4-fluoro-N-[(S)-[3-fluoro-4-(propan-2-yl)phenyl](phenyl)methyl]-5-methyl-1-[2-(1H-1,2,3-triazol-5-yl)acetyl]pyrrolidine-2-carboxamide], for which the pIC50 in assay [1] was 7.74; in assay [2], < 4.00; in assay [3], 6.60.
For `CC(C)c1ccc([C@@H](NC(=O)[C@@H]2C[C@@H](F)CN2C(=O)Cc2ccnnc2)c2ccccc2)cc1F` [Compound 342, (2S,4R)-4-fluoro-N-[(S)-[3-fluoro-4-(propan-2-yl)phenyl](phenyl)methyl]-1-[2-(pyridazin-4-yl)acetyl]pyrrolidine-2-carboxamide], in that order: 7.47, < 4.00 and 6.43.
For `CC(C)c1ccc([C@@H](NC(=O)[C@@H]2C[C@@H](F)CN2C(=O)Cc2cccnn2)c2ccccc2)cc1F` [Compound 343], in that order: 7.57, < 4.00 and 6.34.
For `CC(C)c1ccc([C@@H](NC(=O)[C@@H]2C[C@@H](F)CN2C(=O)Cc2ccncc2)c2ccccc2)cc1F` [Compound 347, (2S,4R)-4-fluoro-N-[(S)-[3-fluoro-4-(propan-2-yl)phenyl](phenyl)methyl]-1-[2-(pyridin-4-yl)acetyl]pyrrolidine-2-carboxamide], in that order: 7.52, < 4.00 and 6.40.
Regarding `CC(C)c1ccc([C@@H](NC(=O)[C@@H]2C[C@@H](F)CN2C(=O)Cc2cccnc2)c2ccccc2)cc1F` [Compound 348, (2S,4R)-4-fluoro-N-[(S)-[3-fluoro-4-(propan-2-yl)phenyl](phenyl)methyl]-1-[2-(pyridin-3-yl)acetyl]pyrrolidine-2-carboxamide], the pIC50 in assay [1] was 7.62; in assay [2] it was < 4.00; in assay [3], 6.57.
For `CC(C)c1ccc([C@@H](NC(=O)[C@@H]2C[C@@H](F)CN2C(=O)Cc2ccccn2)c2ccccc2)cc1F` [Compound 349, (2S,4R)-4-fluoro-N-[(S)-[3-fluoro-4-(propan-2-yl)phenyl](phenyl)methyl]-1-[2-(pyridin-2-yl)acetyl]pyrrolidine-2-carboxamide], in that order: 7.60, < 4.00 and 6.40.
For `Cc1nn(C)c(C)c1CC(=O)N1C[C@H](F)C[C@H]1C(=O)N[C@@H](c1ccccc1)c1ccc(C(C)C)c(F)c1` [Compound 351, (2S,4R)-4-fluoro-N-[(S)-[3-fluoro-4-(propan-2-yl)phenyl](phenyl)methyl]-1-[2-(1,3,5-trimethyl-1H-pyrazol-4-yl)acetyl]pyrrolidine-2-carboxamide], in that order: 8.10, < 4.00 and 6.89.
For `Cc1cn(CC(=O)N2C[C@H](F)C[C@H]2C(=O)N[C@@H](c2ccccc2)c2ccc(C(C)C)c(F)c2)c(=O)[nH]c1=O` [Compound 352, (2S,4R)-4-fluoro-N-[(S)-[3-fluoro-4-(propan-2-yl)phenyl](phenyl)methyl]-1-[2-(5-methyl-2,4-dioxo-1,2,3,4-tetrahydropyrimidin-1-yl)acetyl]pyrrolidine-2-carboxamide], in that order: 8.30, < 4.00 and 6.96.
As to `Cc1cn(CC(=O)N2C[C@H](F)C[C@H]2C(=O)N[C@@H](c2ccccc2)c2ccc(C(C)C)c(F)c2)c(=O)n(C)c1=O` [Compound 353, (2S,4R)-1-[2-(3,5-dimethyl-2,4-dioxo-1,2,3,4-tetrahydropyrimidin-1-yl)acetyl]-4-fluoro-N-[(S)-[3-fluoro-4-(propan-2-yl)phenyl](phenyl)methyl] pyrrolidine-2-carboxamide], the results for the pIC50 in assay [1], in assay [2] and in assay [3] were 8.15, < 4.00 and 7.05, respectively.
On to `CC(C)c1ccc([C@@H](NC(=O)[C@@H]2C[C@@H](F)CN2C(=O)Cn2cnc3ccccc32)c2ccccc2)cc1F` [Compound 354, (2S,4R)-1-[2-(1H-1,3-benzodiazol-1-yl)acetyl]-4-fluoro-N-[(S)-[3-fluoro-4-(propan-2-yl)phenyl](phenyl)methyl] pyrrolidine-2-carboxamide], for which the pIC50 is 8.30 in assay [1], < 4.00 in assay [2] and 7.22 in assay [3].

Source of the values: patent publication US11814367B2, “Inhibitors of glycogen synthase 1 (GYS1) and methods of use thereof” (Maze Therapeutics, Inc., priority 2021, dated 2023).
